These results are taken from US20040024005A1, “Methods and compositions for reducing the development of drug tolerance and/or physical dependence” (The Regents of the University of California, priority 2002, published 2004).

Data set [1] can be described thus: Naloxone-precipitated withdrawal after i.c.v. treatment (jumping, shaking, chewing, weight loss). Particulars: naloxone 3 mg/kg i.p.; for withdrawal symptoms after naloxone (jumping, shaking, chewing, weight loss): i.c.v. twice daily for 5 days, morphine 50 nmoles, DAMGO 1.0 nmole; for withdrawal behaviours after naloxone: 20-min period. How it is done: On day 7, rats were injected intraperitoneally with 3 mg/kg naloxone and placed, individually, in Plexiglass cylinders. The rats were monitored for jumping, shaking, and chewing, and the number of occurrences of each type of behavior over a 20-min period was recorded immediately following the naloxone injection. In addition, the rats were weighed before naloxone injection and after the 20 mins of monitoring indicated above.
On day 5, 30 mins following the second drug administration, rats were injected intraperitoneally with 3 mg/kg naloxone and placed, individually, in Plexiglass cylinders. The rats were monitored for jumping, shaking, and chewing, and the number of occurrences of each type of behavior over a 20-min period was recorded immediately following the naloxone injection. In addition, the rats were weighed before naloxone injection and following the 20-min observation period indicated above.

The target in another data set is T1, mu-opioid receptor (Rattus norvegicus, UniProt P33535).
T1 construct: from tissue; host or cells: brain sections of male Sprague-Dawley rats treated i.c.v
T1 sequence (P33535 whole entry): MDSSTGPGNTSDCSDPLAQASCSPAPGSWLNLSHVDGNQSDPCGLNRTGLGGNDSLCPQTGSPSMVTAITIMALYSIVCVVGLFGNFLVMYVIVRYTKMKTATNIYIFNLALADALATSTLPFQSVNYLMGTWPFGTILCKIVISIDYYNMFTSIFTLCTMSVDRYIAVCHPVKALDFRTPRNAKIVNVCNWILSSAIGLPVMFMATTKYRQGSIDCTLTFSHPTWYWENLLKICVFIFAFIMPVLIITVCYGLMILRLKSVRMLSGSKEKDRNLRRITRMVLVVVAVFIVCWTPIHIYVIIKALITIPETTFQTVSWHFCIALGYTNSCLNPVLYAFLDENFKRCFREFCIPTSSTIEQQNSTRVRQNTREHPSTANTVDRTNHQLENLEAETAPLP
Kind of data set: MOR distribution in brain by immunohistochemistry after acute and chronic i.c.v. treatment. Type of data set: in vivo. Particulars: i.c.v. acute or chronic (twice a day, 5 days); morphine 50 nmoles, DAMGO 1 nmole.

A further data set relates to cAMP pathway. In words: CRE-luciferase reporter assay of cAMP superactivation in MOR-expressing HEK293 cells. Particulars: chronic 14 hours.
The target in the next data set is T2, MOR-G protein coupling (Rattus norvegicus, UniProt P33535).
T2 construct: from tissue; host or cells: brain sections of male Sprague-Dawley rats treated i.c.v
T2 sequence (P33535 whole entry): as above
In words: [35S]-GTPγS binding autoradiography of brain sections (MOR-G protein coupling) after chronic treatment. The data set is classed as in vivo. To be noted: chronic DAMGO treatment as printed; brainstem P<0.001, thalamus P<0.05. On the technique in general: Binding of GTPγS marks nucleotide exchange on a G protein.

Data set [2] in a line: Tail-flick antinociception and tolerance, intracerebroventricular (i.c.v.) cannula. The data set is classed as in vivo, rat. An excerpt: Intracerebroventricular (i.c.v.) cannula implantation. Rats were anesthetized with halothane and placed in a stereotaxic head holder. The scalp was shaved and scrubbed with alcohol. A midline sagittal incision was made, and the skull was exposed. The bone suture junctions Bregma and midline (lambda) were identified, then the location for cannula placement was marked 1 mm posterior to Bregma and 1.5 mm lateral (left) of the midline. A hole was drilled through the skull at the marked location to receive the cannula. Then, three additional holes were drilled around the first hole: anterior, lateral and posterior to the first hole, respectively, and about 3-4 mm apart from the first hole. These three holes were drilled partway through the skull to accommodate three small screws used to secure the cannula. An L-shaped cannula was inserted through the first hole in the skull to the stereotaxically correct depth 3.6 mm below the surface of the skull. The skull surface was completely dried, and the cannula and the implantation site covered with dental cement. Once the surgical procedures were done, the rat was removed from the stereotaxic device and returned to its cage and allowed 5 to 7 days to recover from surgery.
Implantation of osmotic mini-pump. After 5 to 7 days of recovery, a subcutaneous pocket in the midscapular area of the back of each rat, next to the implanted cannula (caudally), was created under light anesthesia with halothane to house the osmotic mini-pump. The subcutaneous pocket was created by first making a small incision, inserting a hemostat into the incision, and then opening and closing the hemostat to make a short subcutaneous tunnel. […] The wound was closed with sutures and the rat was returned to its cage.
Rats were tested for analgesia using the tail-flick latency test twice during the study period. The tests were conducted 30 min after the morning dose on days 1 and 5. Maximum Possible Effect (MPE) was calculated using the following equation: (Post-drug latency—baseline latency)/(cut-off latency—baseline latency)×100%.

A short description of data set [3]: Radiant heat tail-flick antinociception, intrathecal (IT) catheter. Type of data set: in vivo, rat. An excerpt:
Animals. Male Sprague-Dawley rats (250-300 g, Simonsen Laboratories, Inc. Gilroy, Calif.) were housed individually in temperature-controlled rooms with a 12-hr light/dark cycle. Food and water were available ad libitum. All procedures used in this study were in agreement with the NIH Guide for the Care and Use of Laboratory Animals and were approved by the Animal Care and Use Committee at Gallo Center of the University of California, San Francisco.
Preparation and implantation of intrathecal (IT) catheters. […] Two types of catheters were prepared depending on the regimen for test drug delivery. […] For catheter implantation, rats were anesthetized with isoflurane and placed on a stereotaxic device with the head flexed forward. The PE-10 catheter was inserted into the spinal subarachnoid space through an incision in the atlanto-occipital membrane and advanced caudally extending to the lumbar enlargement of the spinal cord. After implantation of IT catheters, rats were returned to their home cages and allowed 7 days to recover from surgery.
Drug treatments. […] The test drug was delivered via either single injection or chronic infusion. […] DAMGO or saline was injected through one arm of the Y-shape catheter at 15 μl volume.
Antinociception test. Rats were tested for antinociception using the radiant heat tail-flick procedure. The light intensity was adjusted to achieve base-line latencies of 1.5 to 2 seconds; a maximum latency of 6 seconds was set as the cut-off time to minimize damage to the tail. […] Antinociception was tested by tail-flick 30 min after the afternoon administration. The behavioral data of antinociception were compared and statistically analyzed by two-way analysis of variance followed by Bonferroni post-test, where P<0.05 was considered significant.
(§1) Rats (4-6 per group) were implanted with an intrathecal catheter through which either an acute injection of agonist could be given or chronic drug could be administered by an osmotic mini pump.
Rats were implanted with a Y-shaped intrathecal catheter. […] Either a sub-analgesic, sub-endocytic dose of DAMGO (0.01 nmoles in 15 μl) or an equal volume of saline was administered twice daily through the other arm of the catheter. […] Analgesia was measured by tail flick latency test once per day 30 minutes following the second injection.

The target of the next data set is wild type MOR (Homo sapiens, UniProt P35372). Particulars: cited from earlier work.
Sequence of wild type MOR (P35372 whole entry): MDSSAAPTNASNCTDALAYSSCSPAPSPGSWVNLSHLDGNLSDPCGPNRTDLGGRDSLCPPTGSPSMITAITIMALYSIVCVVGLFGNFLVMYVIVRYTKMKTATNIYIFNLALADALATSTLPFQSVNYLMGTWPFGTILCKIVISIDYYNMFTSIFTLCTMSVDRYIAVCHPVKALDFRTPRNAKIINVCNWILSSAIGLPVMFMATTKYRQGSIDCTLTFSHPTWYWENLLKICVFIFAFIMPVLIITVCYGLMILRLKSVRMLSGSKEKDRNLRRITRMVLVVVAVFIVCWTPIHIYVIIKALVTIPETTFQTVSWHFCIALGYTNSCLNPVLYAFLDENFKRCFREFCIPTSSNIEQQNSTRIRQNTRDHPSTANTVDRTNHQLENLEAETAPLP
Data set [4] concerns the target T3, FLAG-MOR (mu opioid receptor) (Mus musculus, UniProt P42866).
T3 construct: expressed in transfected cells
In words: MOR endocytosis by antibody feeding and immunocytochemistry in HEK 293 cells. The data set is classed as cell-based. How it is done: (§2) Cell culture and immunocytochemistry. Human Embryonic Kidney (HEK) 293 cells (American Type Culture Collection) were grown in DMEM (Gibco BRL) supplemented with 10% Fetal Bovine Serum (Hyclone). Mu opioid receptor and CRE-Luciferase (Promega) constructs were stably transfected using calcium phosphate co-precipitation, with single colonies chosen and propagated in the presence of selection-containing media. For immunocytochemistry, cells were grown on poly-lysine coated coverslips and incubated with 3.5 μg/ml M1 anti-FLAG and/or 3.5 μg/ml HA-11 antibody (Covance) for 30 minutes. Cells were then treated with agonist as specified, fixed in 4% formaldehyde in PBS, permeabilized in 0.1% Triton X-100 in blotto, and stained. Cells stained for only one receptor type were stained with Texas red-conjugated Donkey anti-Mouse antibody (Jackson Immunoresearch). Cells that were stained for both FLAG and HA tagged receptors simultaneously were first incubated with rabbit anti-IgG2b antibodies (Zymed) followed by staining with Texas red Donkey anti Mouse antibody (Jackson Immunoresearch) and FITC-conjugated Goat anti Mouse IgG1, antibody (Boehringer). Images were acquired using a custom-configured inverted microscope (Prairie Systems, Madison, Wis.) with a Zeiss 63× oil objective, or a Zeiss confocal with a 60× oil objective.
We next assessed whether the heterodimerization of MOR and D MOR could affect the trafficking of the receptors using immunocytochemical methods. […] Control cell lines that expressed only one of the receptors, either FLAG-MOR or HA-D MOR, were treated analogously. All cells were then permeabilized and stained with fluorescently conjugated secondary antibodies. In this way, only receptors that were initially on the cell surface were detected.
HEK 293 cells were generated that stably expressed both the FLAG-tagged MOR and an HA-tagged B2AR. The cells were incubated with antibodies to both epitope tags to label cell surface receptors, treated with various agonists or agonists combinations, then stained for both receptors. […] All treatments were for 30 minutes with 5 μM each agonist.

For data set [5], the target named is T4, MORs in the lamina II neurons of the spinal cord (Rattus norvegicus, UniProt P33535).
T4 construct: from tissue; host or cells: spinal cord (lamina II, dorsal horn) of male Sprague-Dawley rats dosed intrathecally
T4 sequence (P33535 whole entry): as the sequence (P33535 whole entry) above
Kind of data set: Immunohistochemical staining of MORs in lamina II spinal cord neurons after IT drug. The data set is classed as in vivo. As to the method:
Immunohistochemistry. The rats were anesthetized with intramuscular ketamine hydrochloride (80 mg/kg) and xylazine hydrochloride (12 mg/kg) and perfused with 4% paraformaldehyde in 0.1 M phosphate buffer immediately following the tail-flick test at day 7 following pump implantation. The segment of spinal cord proximal to the tip of the catheter was dissected out, post-fixed overnight in the same fixative and then transferred to a 30% sucrose buffer solution. […] The sections were then washed and mounted on slides. MOR distribution was examined with a Zeiss confocal microscope using a 60× oil immersion objective. For quantification, slides from at least two different rats for each condition were stained by one researcher and encoded and vesicles were counted blind by a second individual from the middle section of at least 8 cells per condition. Following compilation of vesicle counts, the code was broken.
as §1
A very low dose of DAMGO was chosen to avoid confusion due to DAMGO-induced endocytosis.
To examine this possibility, we examined the distribution of the MORs in the spinal cord of the rats from the behavioral experiment.

Data set [6] has as its target T5, HA-B2AR (beta-2 adrenergic receptor) (Homo sapiens, UniProt P07550).
T5 construct: expressed in transfected cells
Kind of data set: B2AR endocytosis in HEK 293 cells expressing FLAG-MOR and HA-B2AR. Type of data set: cell-based. Particulars: 5 μM each agonist, 30 minutes. As to the method:
as §2, with “objective. […]” for “objective.”

Where [7] appears, read: acute IT injection, 30 min after, DAMGO 0.3 nmoles, morphine 30 nmoles, p<0.001.
Where [8] appears, read: HEK 293 cells expressing FLAG-MOR and HA-B2AR, 5 μM each agonist, 30 minutes.
Setting [9] is: chronic i.c.v. infusion at 25 or 75 nmoles/hr for 7 days.

A value given as a limit tells only on which side of the number the result lay.

T3 sequence (P42866 whole entry): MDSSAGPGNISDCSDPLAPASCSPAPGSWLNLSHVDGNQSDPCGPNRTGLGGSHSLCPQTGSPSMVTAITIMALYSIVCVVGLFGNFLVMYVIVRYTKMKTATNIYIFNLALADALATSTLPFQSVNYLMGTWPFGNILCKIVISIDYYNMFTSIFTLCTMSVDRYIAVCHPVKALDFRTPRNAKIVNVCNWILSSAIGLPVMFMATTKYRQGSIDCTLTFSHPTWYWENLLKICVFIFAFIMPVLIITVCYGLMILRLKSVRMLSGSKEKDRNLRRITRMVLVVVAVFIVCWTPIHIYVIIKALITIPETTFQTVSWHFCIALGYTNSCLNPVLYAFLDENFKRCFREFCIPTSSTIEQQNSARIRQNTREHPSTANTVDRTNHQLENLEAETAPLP
T5 sequence (P07550 whole entry, species assumed): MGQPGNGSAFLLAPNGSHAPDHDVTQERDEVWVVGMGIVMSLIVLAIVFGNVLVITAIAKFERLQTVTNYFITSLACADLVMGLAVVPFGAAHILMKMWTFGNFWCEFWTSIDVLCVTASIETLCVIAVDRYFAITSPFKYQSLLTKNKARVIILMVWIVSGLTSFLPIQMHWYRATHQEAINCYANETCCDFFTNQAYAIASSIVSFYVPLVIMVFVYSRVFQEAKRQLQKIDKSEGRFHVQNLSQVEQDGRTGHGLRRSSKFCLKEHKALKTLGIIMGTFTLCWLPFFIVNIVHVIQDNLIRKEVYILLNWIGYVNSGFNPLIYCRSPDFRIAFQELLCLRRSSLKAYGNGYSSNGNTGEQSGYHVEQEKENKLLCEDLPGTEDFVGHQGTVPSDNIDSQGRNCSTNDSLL
Procedure for MOR-G protein coupling: The binding assay was carried out as follows:
Slides containing brain sections were pre-incubated in buffer (50 mM Tris, 3 mM MgCl2, 0.2 mM EGTA, 100 mM NaCl, pH 7.4) for 10 min at room temperature.
The slides were then pre-incubated in the same buffer containing 2 mM GDP for 10 min at room temperature.
The slides were incubated in the same buffer as in step 2, additionally containing 50 pM [^35S]GTPγS for 90 min at room temperature.
The slides were then rinsed twice for 2-5 min in ice-cold buffer (the same buffer as in step 1) and dipped in cold distilled water.
The slides were thoroughly dried overnight, placed in X-ray cassettes, and exposed to BioMax MS™ film with an intensifying screen for 72 hr.
After exposure, the films were developed and scanned. The regional neuroanatomy of the rat was determined with the atlas of Paxinos and Watson, and brain areas in autoradiograms were quantitated using NIH Image software. Percent stimulation was calculated from optical densities (OD) according to the following equation:
Percent stimulation=(stimulated OD−basal OD)/basal OD×100%.
Procedure for cAMP pathway: CRE-luciferase reporter expression assays. Cells were grown to confluency in 24 well plates. […] For chronic treatment experiments cells were given drug for 14 hours, rinsed 3 times in drug-free media to initiate a withdrawal phase, then given 2 μM forskolin for the 4 hour withdrawal phase, and luciferase activity measured. […] For all treatment conditions, cells were rinsed once in PBS immediately prior to luciferase measurement. 100 μl Cell Culture Lysis Reagent (Promega) was added to each well, a 20 μl cell lysate aliquot was transferred to an opaque 96 well plate, 100 μl substrate added per well using a Lucy 2 luminometer (Anthos), and light measurements collected. Data were exported to Microsoft Excel for compilation, and GraphPad Prism 3.0 for graphical display, non-linear regression curve fitting, and subsequent statistical analyses.
P<0.01, two-way ANOVA, Tukey's post test.
Procedure for mu-opioid receptor: For the acute treatment, animals were sacrificed 30 mins following the first injection. For the chronic treatment, drugs were given twice a day: morning and afternoon, in 5 μl volume for 5 days, and the animals were sacrificed 30 mins following the final injection. Rats were deeply anesthetized with halothane and perfused with 4% paraformaldehyde in 0.1 M phosphate buffer. The brains were dissected out and post-fixed overnight in the same fixative and then transferred to a 30% sucrose buffer. Coronal sections (30 um thick) were cut on cryostat at −18° C., preincubated in PBT solution (0.1 M phosphate buffer, 2% BSA, and 0.2% Triton X-100) for 30 min, blocked in 5% normal goat serum in PBT solution for another 30 min, and then incubated with a rabbit anti-mu opioid receptor antibody at 1:5000 and mouse and NeuN antibody (which recognizes the neuronal-specific protein NeuN) at 1:5000 overnight at 4° C. […] The sections were then washed and mounted onto slides. The mu-opioid receptors and NeuN were visualized using a Zeiss confocal microscope with a 60× oil immersion objective.

Consider `C[C@@H](NC(=O)[C@@H](N)Cc1ccc(O)cc1)C(=O)NCC(=O)N(C)[C@@H](Cc1ccccc1)C(=O)NCCO` [DAMGO], for which the “withdrawal symptoms after naloxone (jumping, shaking, chewing, weight loss)” value in data set [1] is “no jumping and less shaking, chewing, and weight loss”. The “promotes substantial MOR endocytosis in brain (striatum, globus pallidus, ventral tegumental area)” value at mu-opioid receptor is listed as “does”. Moreover, the “superactivation of the cAMP pathway relative to untreated cells” value was “little superactivation” in the data set with cAMP pathway (10 nM alone) and “superactivation in a dose dependent manner” in the data set with cAMP pathway (1 μM, 100 nM, 10 nM or 1 nM). The “MOR-G protein coupling in the brainstem and thalamus” value on MOR-G protein coupling is “reduction MOR-G protein coupling”. Moreover, the “reduction in antinociception (percent MPE) after 5-day treatment” value in [2] (i.c.v. 1 nmole twice a day for 5 days, day 5 vs day 1) is given as “much smaller reduction in antinociception”. In addition, the “analgesia (tail flick latency)” value in data set [3] (0.01 nmoles IT twice daily, saline from mini pump, 7 days) was “produced no analgesia”; in data set [3] (acute IT injection, 30 min after, 0.01 nmoles, p>0.05) it was “no analgesic effect”; in data set [3] (setting [7]), “produced significant analgesia”. The MOR endocytosis result on wild type MOR was “promotes robust endocytosis of the MOR”; in data set [4] (setting [8]), “promoted endocytosis of the MOR”; in data set [4] (HEK 293 cells expressing only MOR, 5 μM, 30 minutes (saturating dose)), “robust endocytosis of receptor”; in data set [4] (HEK 293 cells expressing only MOR, non-saturating DAMGO 100 nM alone), “significantly less receptor endocytosis”. The “MOR endocytosis in lamina II neurons” value in data set [5] (acute IT, 0.01 nmoles alone) was “nor detectable MOR endocytosis”. Also, in [5] (acute IT, DAMGO 0.3 nmoles, equi-analgesic morphine 30 nmoles), the “MOR distribution / endocytosis in lamina II neurons” value is “pronounced receptor endocytosis”. Moreover, the “distribution of MORs in spinal cord neurons” value in data set [5] (day 7 of chronic IT treatment, morphine mini pump and/or DAMGO 0.01 nmoles twice daily) was “indistinguishable from animals given only saline”. For the same compound, the B2AR endocytosis entry in [6] is listed as “not B2AR”.

Turning to `CC(C)NCC(O)c1ccc(O)c(O)c1` (stereo not drawn) [isoproterenol], the MOR endocytosis result in data set [4] (setting [8]) is reported as “not MOR”.

Turning to `CN1CC[C@]23c4c5ccc(O)c4O[C@H]2[C@@H](O)C=C[C@H]3[C@H]1C5` [morphine, (5α,6α)-7,8-didehydro-4,5-epoxy-17-methylmorphinan-3,6-diol], the “withdrawal behaviours after naloxone” value in [1] (i.c.v. 25 nmoles/hr for 7 days) is “increases in shaking and chewing”. In addition, the “withdrawal behaviours after naloxone” value in data set [1] (i.c.v. 75 nmoles/hr for 7 days) is “increases in jumping, shaking, and chewing”. Further, the “weight loss after naloxone” value in data set [1] (i.c.v. 25 or 75 nmoles/hr for 7 days) is recorded as “dose-dependent weight loss”. For the same compound, the “withdrawal symptoms after naloxone (jumping, shaking, chewing, weight loss)” value in data set [1] is “produced jumping, shaking, and chewing and weight loss”. Also, in data set [2] (setting [9]), the “duration of significant antinociceptive effect” value fell in the range of 3 to 4 days and the tolerance result was “causes tolerance in a dose-dependent manner”. Moreover, in data set [2] (i.c.v. 50 nmoles twice a day for 5 days, day 5 vs day 1), the “reduction in antinociceptive effect (percent MPE) after 5-day treatment” value is recorded as 30-40%. The “time to development of tolerance” value in [3] (Y-shaped IT catheter, chronic morphine mini pump plus twice daily saline injections) is given as at most 4 days. Besides, the “antinociception early in the experiment / day one” value in data set [3] (Y-shaped IT catheter, chronic morphine mini pump plus twice daily saline or DAMGO 0.01 nmoles) was “pronounced antinociception early in the experiment”. In data set [3] (setting [7]), the “analgesia (tail flick latency)” value is given as “produced significant analgesia”. The “loss of antinociception (tolerance)” value in data set [3] (chronic IT infusion at 2, 6, or 18 nmoles/hr, 7 days) was “eventually lost completely over 7 days”. Moreover, the “antinociceptive effect (tail flick latency)” value in data set [3] (chronic IT infusion at 2, 6, or 18 nmoles/hr, early days) is on record as “significant antinociceptive effect for the first few days”.
